Assay results reported in patent US7875587B2, “Peptide analogues of GIP for treatment of diabetes, insulin resistance and obesity” (UUTECH Limited, priority 2004, dated 2011).
Where two headings read alike, the source gives them in different places. No end group written: not given here.

Tests used:
[1] = Degradation of GIP and analogues by human plasma (HPLC); type: in vitro ADME; conditions: for % Intact peptide remaining after incubations with human plasma: 0 h; for effect of DPA on plasma degradation of the peptide: 24 hours in the presence of DPA; for remaining at 2 h, 20 µg/ml / remaining at 4 h, 20 µg/ml / remaining at 8 h, 20 µg/ml / remaining at 24 h, 20 µg/ml: human, plasma, read-out: % Intact peptide remaining after incubations with human plasma; for remaining at 2 h, 20 µg/ml: pH 7.8, 2 h; for remaining at 4 h, 20 µg/ml: pH 7.8, 4 h; for remaining at 8 h, 20 µg/ml: pH 7.8, 8 h
Protocol: Degradation of GIP and Tyr^1-glucitol GIP by human plasma. […] […] The reactions were terminated by addition of 5 μl of TFA and the final volume adjusted to 1.0 ml using 0.1% v/v TFA/water. Samples were centrifuged (13,000 g, 5 minutes) and the supernatant applied to a C-18 Sep-Pak cartridge (Millipore-Waters) which was previously primed and washed with 0.1% (v/v) TFA/water. […] The volume was adjusted to 1.0 ml with 0.12% (v/v) TFA/water prior to HPLC purification.
(§1) HPLC analysis of degraded GIP and Tyr^1-glucitol GIP. […] Using 0.1% (v/v) TFA in 70% acetonitrile/H20, the concentration of acetonitrile in the eluting solvent was raised from 0% to 31.5% over 15 min, to 38.5% over 30 minutes and from 38.5% to 70% over 5 minutes, using linear gradients. The absorbance was monitored at 206 nm and peak areas evaluated using a model 2221 LKB integrator. Samples recovered manually were concentrated using a Speed-Vac concentrator.
(§2) Electrospray ionization-mass spectrometry (ESI-MS) was carried out as described in Example 2. Degradation of GIP and novel GIP analogues by DPP IV and human plasma was carried out as described in Example 2.

DPP IV = biological target: T1, DPP IV (Sus scrofa, UniProt P22411); test: Degradation of GIP and analogues by DPP IV (HPLC); type: in vitro ADME; conditions: for resistance to in vitro degradation with DPP IV relative to native GIP: Example 3, summary of Table 1; for % Intact peptide remaining after time (h) / remaining at 2 h, 1 mmol/l / remaining at 4 h, 1 mmol/l / remaining at 8 h, 1 mmol/l / remaining at 24 h, 1 mmol/l: incubation with DPP IV; for % Intact peptide remaining after time (h): 0 h; for remaining at 2 h, 1 mmol/l / remaining at 4 h, 1 mmol/l / remaining at 8 h, 1 mmol/l / remaining at 24 h, 1 mmol/l: isolated enzyme dpp iv, pH 7.8, read-out: % Intact peptide remaining after time (h)
T1 construct: purchased Sigma (Poole, Dorset, UK)
T1 sequence (P22411 whole entry): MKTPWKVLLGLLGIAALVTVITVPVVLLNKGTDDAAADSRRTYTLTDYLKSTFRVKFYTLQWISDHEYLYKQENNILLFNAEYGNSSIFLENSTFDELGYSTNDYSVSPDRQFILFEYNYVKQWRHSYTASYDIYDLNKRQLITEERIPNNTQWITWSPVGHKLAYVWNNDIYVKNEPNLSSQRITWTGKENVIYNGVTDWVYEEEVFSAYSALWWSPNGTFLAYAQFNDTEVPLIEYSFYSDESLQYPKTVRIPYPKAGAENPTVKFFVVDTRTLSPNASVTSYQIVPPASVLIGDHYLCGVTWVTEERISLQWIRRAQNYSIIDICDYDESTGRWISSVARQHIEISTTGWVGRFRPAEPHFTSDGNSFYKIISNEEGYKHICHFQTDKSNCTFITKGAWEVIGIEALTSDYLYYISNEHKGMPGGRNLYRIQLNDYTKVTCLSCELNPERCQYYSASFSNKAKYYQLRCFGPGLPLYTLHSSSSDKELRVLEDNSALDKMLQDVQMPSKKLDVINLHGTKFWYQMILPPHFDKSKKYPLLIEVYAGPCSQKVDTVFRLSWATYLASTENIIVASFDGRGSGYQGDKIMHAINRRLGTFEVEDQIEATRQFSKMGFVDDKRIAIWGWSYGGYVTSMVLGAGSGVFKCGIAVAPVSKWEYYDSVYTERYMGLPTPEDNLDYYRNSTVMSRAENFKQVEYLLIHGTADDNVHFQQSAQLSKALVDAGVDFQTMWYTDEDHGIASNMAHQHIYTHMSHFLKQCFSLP
Protocol: Degradation of GIP and Tyr^1-glucitol GIP by DPP IV. HPLC-purified GIP or Tyr^1-glucitol GIP were incubated at 37° C. with DPP-IV (5 mU) for various time periods in a reaction mixture made up to 500 μl with 50 mmol/l triethanolamine-HCl, pH 7.8 (final peptide concentration 1 mmol/l). Enzymatic reactions were terminated after 0, 2, 4 and 12 hours by addition of 5 μl of 10% (v/v) TFA/water. Samples were made up to a final volume of 1.0 ml with 0.12% (v/v) TFA and stored at −20° C. prior to HPLC analysis.
as §1, §2

BRIN-BD11 cells = test: Acute tests for insulin secretion from BRIN-BD11 cells; type: cell-based; conditions: 5.6 and 16.7 mM glucose, 10^-13 to 10^-8 M peptide
Protocol: Culture of insulin secreting cells. BRIN-BD11 cells were cultured in sterile tissue culture flasks (Corning, Glass Works, UK) using RPMI-1640 tissue culture medium containing 10% (v/v) foetal calf serum, 1% (v/v) antibiotics (100 U/ml penicillin, 0.1 mg/ml streptomycin) and 11.1 mM glucose. The cells were maintained at 37° C. in an atmosphere of 5% CO2 and 95% air using a LEEC incubator (Laboratory Technical Engineering, Nottingham, UK).
Acute tests for insulin secretion. Before experimentation, the cells were harvested from the surface of the tissue culture flasks with the aid of trypsin/EDTA (Gibco), seeded into 24-multiwell plates (Nunc, Roskilde, Denmark) at a density of 1.5×10^5 cells per well, and allowed to attach overnight at 37° C. Acute tests for insulin release were preceded by 40 minutes pre-incubation at 37° C. in 1.0 ml Krebs Ringer bicarbonate buffer (115 mM NaCl, 4.7 mM KCl, 1.28 mM CaCl2, 1.2 mM KH2PO4, 1.2 mM MgSO4, 10 mM NaHCO3, 5 g/l bovine serum albumin, pH 7.4) supplemented with 1.1 mM glucose. Test incubations were performed (n=12) at two glucose concentrations (5.6 mM and 16.7 mM) with a range of concentrations (10^−13 to 10^−8 M) of GIP or GIP analogues. After 20 minutes incubation, the buffer was removed from each well and aliquots (200 μl) were used for measurement of insulin by radioimmunoassay.

[2] = pH 7.8, 24 hours in the presence of DPA (diprotin A)

CC[C@H](NC(=O)[C@@H](N)Cc1ccc(O)cc1)C(=O)N[C@@H](CCC(=O)O)C(=O)NCC(=O)N[C@H](C(=O)N[C@@H](Cc1ccccc1)C(=O)N[C@H](C(=O)N[C@@H](CO)C(=O)N[C@@H](CC(=O)O)C(=O)N[C@@H](Cc1ccc(O)cc1)C(=O)N[C@@H](CO)C(=O)N[C@H](C(=O)N[C@@H](C)C(=O)N[C@@H](CCSC)C(=O)N[C@@H](CC(=O)O)C(=O)N[C@@H](CCCCN)C(=O)N[C@H](C(=O)N[C@@H](Cc1c[nH]cn1)C(=O)N[C@@H](CCC(N)=O)C(=O)N[C@@H](CCC(N)=O)C(=O)N[C@@H](CC(=O)O)C(=O)N[C@@H](Cc1ccccc1)C(=O)N[C@H](C(=O)N[C@@H](CC(N)=O)C(=O)N[C@@H](Cc1c[nH]c2ccccc12)C(=O)N[C@@H](CC(C)C)C(=O)N[C@@H](CC(C)C)C(=O)N[C@@H](C)C(=O)N[C@@H](CCC(N)=O)C(=O)N[C@@H](CCCCN)C(=O)NCC(=O)N[C@@H](CCCCN)C(=O)N[C@@H](CCCCN)C(=O)N[C@@H](CC(N)=O)C(=O)N[C@@H](CC(=O)O)C(=O)N[C@@H](Cc1c[nH]c2ccccc12)C(=O)N[C@@H](CCCCN)C(=O)N[C@@H](Cc1c[nH]cn1)C(=O)N[C@@H](CC(N)=O)C(=O)N[C@H](C(=O)N[C@H](C(=O)N[C@@H](CCC(N)=O)C(=O)O)[C@@H](C)O)[C@@H](C)CC)C(C)C)[C@@H](C)CC)[C@@H](C)CC)[C@@H](C)CC)[C@@H](C)O [GIP (Abu^2)]
% Intact peptide remaining after incubations with human plasma [1]: 100% | effect of DPA on plasma degradation of the peptide [1]: complete abolition of degradation | remaining at 2 h, 20 µg/ml [1]: 38 ± 1% | remaining at 4 h, 20 µg/ml [1]: 28 ± 2% | remaining at 8 h, 20 µg/ml [1]: 0% | remaining at 24 h, 20 µg/ml ([1]; pH 7.8, 24 h): 0% | remaining at 24 h, 20 µg/ml [1, 2]: 100% | resistance to in vitro degradation with DPP IV relative to native GIP (DPP IV): more resistant than native GIP | % Intact peptide remaining after time (h) (DPP IV): 100% | remaining at 2 h, 1 mmol/l (DPP IV): 38 ± 1% | remaining at 4 h, 1 mmol/l (DPP IV): 28 ± 2% | remaining at 8 h, 1 mmol/l (DPP IV): 0% | remaining at 24 h, 1 mmol/l (DPP IV): 0% | insulin secretion from BRIN-BD11 cells (BRIN-BD11 cells): complex pattern of responsiveness dependent on glucose concentration and dose employed

CC[C@H](C)[C@H](NC(=O)[C@H](CO)NC(=O)[C@H](Cc1ccc(O)cc1)NC(=O)[C@H](CC(=O)O)NC(=O)[C@H](CO)NC(=O)[C@@H](NC(=O)[C@H](Cc1ccccc1)NC(=O)[C@@H](NC(=O)CNC(=O)[C@H](CCC(=O)O)NC(=O)CN(C)C(=O)[C@@H](N)Cc1ccc(O)cc1)[C@@H](C)O)[C@@H](C)CC)C(=O)N[C@@H](C)C(=O)N[C@@H](CCSC)C(=O)N[C@@H](CC(=O)O)C(=O)N[C@@H](CCCCN)C(=O)N[C@H](C(=O)N[C@@H](Cc1c[nH]cn1)C(=O)N[C@@H](CCC(N)=O)C(=O)N[C@@H](CCC(N)=O)C(=O)N[C@@H](CC(=O)O)C(=O)N[C@@H](Cc1ccccc1)C(=O)N[C@H](C(=O)N[C@@H](CC(N)=O)C(=O)N[C@@H](Cc1c[nH]c2ccccc12)C(=O)N[C@@H](CC(C)C)C(=O)N[C@@H](CC(C)C)C(=O)N[C@@H](C)C(=O)N[C@@H](CCC(N)=O)C(=O)N[C@@H](CCCCN)C(=O)NCC(=O)N[C@@H](CCCCN)C(=O)N[C@@H](CCCCN)C(=O)N[C@@H](CC(N)=O)C(=O)N[C@@H](CC(=O)O)C(=O)N[C@@H](Cc1c[nH]c2ccccc12)C(=O)N[C@@H](CCCCN)C(=O)N[C@@H](Cc1c[nH]cn1)C(=O)N[C@@H](CC(N)=O)C(=O)N[C@H](C(=O)N[C@H](C(=O)N[C@@H](CCC(N)=O)C(=O)O)[C@@H](C)O)[C@@H](C)CC)C(C)C)[C@@H](C)CC [GIP (Sar^2)]
% Intact peptide remaining after incubations with human plasma [1]: 100% | plasma degradation ([1]; Example 3, summary of Table 2): resistance to plasma degradation | remaining at 2 h, 20 µg/ml [1]: 28 ± 2% | remaining at 4 h, 20 µg/ml [1]: 8% | remaining at 8 h, 20 µg/ml [1]: 0% | remaining at 24 h, 20 µg/ml ([1]; pH 7.8, 24 h): 0% | remaining at 24 h, 20 µg/ml [1, 2]: 100% | resistance to in vitro degradation with DPP IV relative to native GIP (DPP IV): less resistant | % Intact peptide remaining after time (h) (DPP IV): 100% | remaining at 2 h, 1 mmol/l (DPP IV): 28 ± 2% | remaining at 4 h, 1 mmol/l (DPP IV): 8% | remaining at 8 h, 1 mmol/l (DPP IV): 0% | remaining at 24 h, 1 mmol/l (DPP IV): 0% | insulin secretion from BRIN-BD11 cells (BRIN-BD11 cells): complex pattern of responsiveness dependent on glucose concentration and dose employed

CC[C@H](C)[C@H](NC(=O)[C@H](CO)NC(=O)[C@H](Cc1ccc(O)cc1)NC(=O)[C@H](CC(=O)O)NC(=O)[C@H](CO)NC(=O)[C@@H](NC(=O)[C@H](Cc1ccccc1)NC(=O)[C@@H](NC(=O)CNC(=O)[C@H](CCC(=O)O)NC(=O)[C@H](C)NC(=O)[C@H](Cc1ccc(O)cc1)NC(C)=O)[C@@H](C)O)[C@@H](C)CC)C(=O)N[C@@H](C)C(=O)N[C@@H](CCSC)C(=O)N[C@@H](CC(=O)O)C(=O)N[C@@H](CCCCN)C(=O)N[C@H](C(=O)N[C@@H](Cc1c[nH]cn1)C(=O)N[C@@H](CCC(N)=O)C(=O)N[C@@H](CCC(N)=O)C(=O)N[C@@H](CC(=O)O)C(=O)N[C@@H](Cc1ccccc1)C(=O)N[C@H](C(=O)N[C@@H](CC(N)=O)C(=O)N[C@@H](Cc1c[nH]c2ccccc12)C(=O)N[C@@H](CC(C)C)C(=O)N[C@@H](CC(C)C)C(=O)N[C@@H](C)C(=O)N[C@@H](CCC(N)=O)C(=O)N[C@@H](CCCCN)C(=O)NCC(=O)N[C@@H](CCCCN)C(=O)N[C@@H](CCCCN)C(=O)N[C@@H](CC(N)=O)C(=O)N[C@@H](CC(=O)O)C(=O)N[C@@H](Cc1c[nH]c2ccccc12)C(=O)N[C@@H](CCCCN)C(=O)N[C@@H](Cc1c[nH]cn1)C(=O)N[C@@H](CC(N)=O)C(=O)N[C@H](C(=O)N[C@H](C(=O)N[C@@H](CCC(N)=O)C(=O)O)[C@@H](C)O)[C@@H](C)CC)C(C)C)[C@@H](C)CC [N-Acetyl-GIP]
resistance to in vitro degradation with DPP IV relative to native GIP (DPP IV): more resistant than native GIP | % Intact peptide remaining after time (h) (DPP IV): 100% | remaining at 2 h, 1 mmol/l (DPP IV): 100% | remaining at 4 h, 1 mmol/l (DPP IV): 100% | remaining at 8 h, 1 mmol/l (DPP IV): 100%

Ile-Pro-Ile [diprotin A, reference compound]
effect of DPP IV inhibitor on degradation of GIP by plasma [1]: completely inhibited degradation of the peptide by plasma

YSEGTFISDYSIAMDKIHQQDFVNWLLAQKGKKNDWKHNITQ-OH [GIP (Ser^2)]
% Intact peptide remaining after incubations with human plasma [1]: 100% | effect of DPA on plasma degradation of the peptide [1]: complete abolition of degradation | remaining at 2 h, 20 µg/ml [1]: 77 ± 2% | remaining at 4 h, 20 µg/ml [1]: 60 ± 1% | remaining at 8 h, 20 µg/ml [1]: 32 ± 4% | remaining at 24 h, 20 µg/ml ([1]; pH 7.8, 24 h): 0% | remaining at 24 h, 20 µg/ml [1, 2]: 63 ± 3% | resistance to in vitro degradation with DPP IV relative to native GIP (DPP IV): more resistant than native GIP | % Intact peptide remaining after time (h) (DPP IV): 100% | remaining at 2 h, 1 mmol/l (DPP IV): 77 ± 2% | remaining at 4 h, 1 mmol/l (DPP IV): 60 ± 1% | remaining at 8 h, 1 mmol/l (DPP IV): 32 ± 4% | remaining at 24 h, 1 mmol/l (DPP IV): 0% | insulin secretion from BRIN-BD11 cells (BRIN-BD11 cells): strong response
